# Reference: article PMC8693235, “Biocatalytic kinetic resolution of D,L-pantolactone by using a novel recombinant D-lactonase” (RSC Advances, 2020)
# Molecular target: T1, TSDL (D-lactonase) (Thermothielavioides terrestris, UniProt G2R1T8)
# T1 construct: gene THITE_2046186; 421 aa, about 45 kDa on SDS-PAGE; pET-28a(+) NcoI/XhoI, E. coli BL21(DE3), intracellular; used as whole cells
# T1 sequence (G2R1T8 1-421): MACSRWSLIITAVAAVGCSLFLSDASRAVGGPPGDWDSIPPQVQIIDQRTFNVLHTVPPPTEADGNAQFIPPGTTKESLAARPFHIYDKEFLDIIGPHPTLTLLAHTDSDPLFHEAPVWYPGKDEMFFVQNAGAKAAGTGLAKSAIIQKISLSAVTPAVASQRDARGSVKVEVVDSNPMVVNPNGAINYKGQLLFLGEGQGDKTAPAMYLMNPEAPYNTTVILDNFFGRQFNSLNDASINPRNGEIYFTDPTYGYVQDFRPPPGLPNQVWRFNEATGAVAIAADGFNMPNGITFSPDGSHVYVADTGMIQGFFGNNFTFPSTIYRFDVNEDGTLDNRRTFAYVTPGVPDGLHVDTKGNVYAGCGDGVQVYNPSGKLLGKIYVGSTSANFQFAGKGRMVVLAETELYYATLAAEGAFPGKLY
# Assay: whole-cell hydrolysis of D,L-pantolactone, HPLC and chiral HPLC
# Assay type: cell-based
# Conditions: racemic D,L-pantolactone; recombinant E. coli (TSDL) whole cells; pH 7.0, 30 °C; 5% NH3·H2O for pH control
smiles,measurement,value
"CC1(C)COC(=O)[C@@H]1O [D-PL, D-pantolactone]","whole-cell hydrolysis of D,L-pantolactone, HPLC and chiral HPLC",The recombinant TSDL exhibited high hydrolysis activity and enantioselectivity toward D-PL
